The source of these data is article PMC5962729 (Frontiers in Pharmacology, 2018).

Series [1] can be described thus: Pharmacokinetic study of YCHD components and phase II metabolites in ANIT-induced cholestatic rats (UHPLC-MS/MS, sulfatase enzymolysis). Type of series: in vivo, rat. Conditions: for AUC(0-∞) / Ka: Model group (ANIT 50 mg/kg cholestatic rats); for AUC(0-∞) / Ka / Cmax / Tmax / CL/F / MRT inf / Vd/F / half-life: plasma; for Cmax / Tmax / CL/F / MRT inf / Vd/F / half-life: rat, po, 12 g/kg; for CL/F: read-out: CLz/F; for MRT inf: read-out: MRT (0-∞) (converted); for Vd/F: read-out: Vz/F; for half-life: read-out: t1/2z. The method, then:
(§1) To explore the pharmacokinetic properties of YCHD following intragastric administration in rats, a rapid and sensitive method involving the use of UHPLC-MS/MS (Agilent 6460 series, Agilent Technologies, Santa Clara, CA, United States) was developed and validated for the simultaneous quantification of 10 active components of rat plasma. The quantification was conducted in ESI negative ionization mode, and the mass spectrometry conditions were as follows: capillary voltage, 3500 V; gas flow, 12 L/min; nebulizer, 40 psi; gas temperature, 350°C; and delta EMV (-), 400.
(§2) To each 50 μL plasma sample, 10 μL of internal standard solution (paeoniflorin, 1000 ng/mL) and 300 μL of a mixed solution of methanol and acetonitrile (v/v, 1:1; containing 1% formic acid) were added. Subsequently, the solution was vortex mixed for 5 min. After centrifugation at 15,000 rpm for 5 min, the supernatant was transferred completely into a tube, before being evaporated under N2 at 40°C. The residue was then dissolved in 50 μL of 50% methanol–water (v/v, 1:1) through vortexing for 5 min, after centrifugation at 15,000 rpm for 10 min. Finally, 5 μL of the supernatant sample was injected into the UHPLC-MS/MS system for analysis.
The rats were randomly divided into two groups (n = 5 for each group). […] The blood samples were centrifuged at 4000 rpm for 10 min, and the supernatant plasma was harvested. Plasma samples (50 μL) were immediately processed as outlined in Section “Chromatographic and Mass Spectrometry Conditions.”
(§3) Additional plasma samples (50 μL) were enzymatically hydrolyzed with 50 μL of enzyme solution (65.86 mg of sulfatase, dissolved in 2 mL of sodium acetate buffer, pH 5.0) for phase II metabolite quantification, in accordance with our previous study ([Ding et al., 2012]). After being vortex mixed for 5 min, the mixture was incubated at 37°C for 30 min and then returned to room temperature. Subsequently, the samples were processed as outlined in Section “Chromatographic and Mass Spectrometry Conditions” for UHPLC-MS/MS analysis. During routine analysis, each analytical run included six blank plasma samples, a set of calibration samples, a set of QC samples, and unknowns.
(§4) All data are presented as mean ± SD. A one-way analysis of variance was used to compare data between two groups using SPSS (Version 21.0). The differences were considered to be statistically significant when p < 0.05 and highly significant when p < 0.01 or p < 0.001. Pharmacokinetic data analysis was performed using DAS 2.1.1 software (Mathematical Pharmacology Professional Committee of China, Shanghai, China).
The specific contents of the phase II metabolites of these components were detected indirectly by evaluating the content difference of their prototypes in samples after enzymolysis and before enzymolysis
(§5) CG = Ca −[MG × (CGG/MGG + CGe/MGe)]
Ca, CGG, and CGe represent the concentration of genipin, genipin-1-β-D-gentiobioside, and geniposide after enzymolysis of sulfatase, respectively. MG, MGG-, and MGe represent the mass of genipin, genipin-1-β-D-gentiobioside, and geniposide, respectively.

Series [2] can be described thus: Pharmacokinetic study of YCHD components and phase II metabolites in normal rats (UHPLC-MS/MS, sulfatase enzymolysis). Type of series: in vivo, rat. Conditions: for Tmax: po, 12 g/kg; for CL/F: read-out: CLz/F; for Vd/F: read-out: Vz/F; for direct detection of the prototype in rat plasma after YCHD administration: before enzymolysis, transformed into phase II metabolites completely. As to the method: as §1, with “400. A 5 μL extraction sample was injected into the column (Agilent SB-C18 column, 2.1 mm × 50 mm, 1.8 μm) and eluted at 0.4 mL/min with a gradient elution of water (with 0.4% v/v formic acid) (A) and acetonitrile (B) (0–3 min, 5–60% B; 3–5 min, 60–90% B; 5–5.1 min, 90–5% B; and re-equilibration for 3 min).” for “400.”
as §2
The rats were randomly divided into two groups (n = 5 for each group). […] After 24 h, the two groups of rats received a single oral dose of YCHD (12 g/kg). Blood was collected in heparinized tubes at 5, 15, 30, 45, 60, 120, 240, 360, 480, 720, and 1440 min after administration. The blood samples were centrifuged at 4000 rpm for 10 min, and the supernatant plasma was harvested. Plasma samples (50 μL) were immediately processed as outlined in Section “Chromatographic and Mass Spectrometry Conditions.”
as §3, §4
After sulfatase-aided enzymolysis, all the phase II metabolites could transform into their prototypes, including rhein, emodin, genipin, and capillarisin. The specific contents of the phase II metabolites of these components were detected indirectly by evaluating the content difference of their prototypes in samples after enzymolysis and before enzymolysis
as §5
Ca, CGG, and CGe represent the concentration of genipin, genipin-1-β-D-gentiobioside, and geniposide after enzymolysis of sulfatase, respectively. MG, MGG-, and MGe represent the mass of genipin, genipin-1-β-D-gentiobioside, and geniposide, respectively. The pharmacokinetic curves of phase II metabolites are illustrated in Figure 4B.

A short description of series [3]: Identification of components and metabolites of YCHD in rat plasma, bile, urine and feces (UHPLC/Q-TOF-MS). It counts as in vivo. As to conditions: rats, oral YCHD 12 g/kg, urine, feces. As to the method:
After centrifuging at 4000 rpm for 10 min, supernatant plasma was harvested into heparinized tubes and then stored at -20°C for preservation. The rats in the second group (n = 6) were kept individually in metabolic cages to collect urine and feces. […] Subsequently, the rats were orally administered a single dose of YCHD (12 g/kg of body weight). […] For the third group of rats (n = 6), bile duct intubation was implemented, and blank bile samples were collected before administration. After the administration of YCHD at 12 g/kg of body weight, the drug-containing bile samples were collected.
Plasma, bile, and urine samples (200 μL each) were separately precipitated with six times of methanol–acetonitrile mixed solution (v/v, 1:1; containing 1% formic acid). After being vortex mixed for 5 min and centrifuged at 15,000 rpm for 5 min at 4°C, the supernatant was separated into another clean tube and dried under a gentle stream of nitrogen at 45°C. Subsequently, the residue was reconstituted in 100 μL of 50% methanol–water (v/v) and then vortex mixed for 10 min. After another round of centrifugation at 15,000 rpm for 5 min at 4°C, 5 μL of the supernatant was analyzed by UHPLC-MS/MS. A 0.5 g sample of naturally dried feces was supplemented with 2 mL of 80% methanol–water (v/v) and then ultrasonically extracted for 30 min at 4°C. After being centrifuged at 15,000 rpm for 10 min, the supernatant was dried under a gentle stream of nitrogen at 45°C. Finally, the residue was reconstituted in 1 mL of 50% methanol–water (v/v) and then vortex mixed for 10 min. After another round of centrifugation at 15,000 rpm for 5 min at 4°C, 5 μL of the supernatant sample was injected into the UHPLC-MS/MS system for analysis.
Separations were conducted on an Agilent SB-C18 column (2.1 mm × 50 mm, 1.8 μm) of a UHPLC/Q-TOF-MS system (Waters, Corp., Milford, MA, United States) maintained at 40°C.
A Synapt G2 quadrupole time-of-flight (Q/TOF) MS/MS system (Waters, Corp., Manchester, United Kingdom) equipped with an electrospray ionization (ESI) interface was operated in negative ionization mode and controlled by MassLynx software (Version 4.1). The optimized conditions for maximum detection of metabolites were as follows: the capillary voltage was set at 3.0 kV, extraction cone voltage was set at 10 and 15 V, source temperature was maintained at 120°C, and desolvation temperature was maintained at 450°C. […] An MS^E approach using a dynamic ramp of collision energy was also applied at two (low and high collision energies) scan functions. The following parameters were set: Function 1 (low energy)—mass scan range, 100–1000; scan time, 0.25 s; interscan delay, 0.05 s; collision energy, 4 V. Function 2 (high energy)—mass scan range, 100–1000; scan time, 0.2 s; interscan delay, 0.05 s; collision energy ramp, 10–30 V. Data were acquired using Masslynx^TM (Version 4.1. Waters, Crop., Milford, MA, United States), and Metabolynx^TM (Waters, Crop., Milford, MA, United States) was applied for post-acquisition data processing.

The mark [4] stands for this setting: Control group (normal rats), single oral YCHD 12 g/kg, plasma.
Where [5] appears, read: Sprague Dawley, rat, plasma, in normal and cholestatic rats after oral administration of YCHD.
Setting [6] is: Sprague Dawley, rat, Control group (normal rats), single oral YCHD 12 g/kg, plasma.
Where [7] appears, read: rat, Control group (normal rats), single oral YCHD 12 g/kg, plasma.

SMILES strings stand for the structures. A value given as a limit tells only on which side of the number the result lay.

As for `O=C(O)/C=C/c1ccc(O)c(O)c1` [Caffeic acid], in series [1] (single oral YCHD 12 g/kg), the “AUC(0-∞)” value is 32651.4 ± 19640.7 µg·min/L; the Ka was 75.2 ± 24.5 min⁻¹; the “AUC(0-∞) increased by, cholestatic model rats compared with normal rats” value was 191.3%; the “AUC(0-∞) reduced by, cholestatic model rats compared with normal rats” value worked out at 48.9%. Moreover, in series [1] (single oral YCHD 12 g/kg), the “Cmax increased by, cholestatic model rats compared with normal rats” value was found to be 138.8% and the “Cmax reduced by, cholestatic model rats compared with normal rats” value amounted to 72.4%. Also, in series [1] (Sprague Dawley), the Cmax is 78.9 ± 4.9 ng/mL, the Tmax was 24 min, the CL/F was 1190 ± 95 mL/min/kg and the MRT inf was 103 min. For the same compound, in series [1], the Vd/F came to 132 ± 39.7 L/kg and the half-life came out at 80.1 ± 27.5 min. In addition, in series [2] (setting [4]), the “AUC(0-∞)” value stood at 63847.8 ± 53249.0 µg·min/L and the Ka was found to be 119.2 ± 82.6 min⁻¹. The time to peak (Tmax) in series [2] (Sprague Dawley, rat, plasma, Control group (normal rats), single oral YCHD 12 g/kg, plasma) is 15 min. Besides, in series [2] (setting [5]), the Tmax was at most 27 min. Further, in series [2] (setting [6]), the Cmax worked out at 286 ± 14.5 ng/mL and the CL/F is 445 ± 38 mL/min/kg. Further, the MRT inf in series [2] (Sprague Dawley, rat, Control group (normal rats), single oral YCHD 12 g/kg, plasma, read-out: MRT (0-∞) (converted)) is 85.3 min. Further, the Vd/F in series [2] (setting [7]) is 35.7 ± 29.1 L/kg. In addition, the half-life in series [2] (rat, Control group (normal rats), single oral YCHD 12 g/kg, plasma, read-out: t1/2z) is 56.3 ± 43 min.
In the case of `COc1c(O)cc2oc(Oc3ccc(O)cc3)cc(=O)c2c1O` [Capillarisin], the “Source (biological samples in which the compound was identified)” value in series [3] is given as “Urine, feces”. Further, the “direct detection of the prototype in rat plasma after YCHD administration” value (shortened to “direct detection of the prototype”) in series [2] is “could not be detected directly”.
With `O=C(/C=C/c1ccc(O)c(O)c1)O[C@@H]1C[C@](O)(C(=O)O)C[C@@H](O)[C@H]1O` [Chlorogenic acid], in series [1] (single oral YCHD 12 g/kg), the “AUC(0-∞)” value was determined as 21437.2 ± 12572.8 µg·min/L and the Ka worked out at 38.945 ± 18.022 min⁻¹. Moreover, in series [1], the maximum concentration (Cmax) was 78.9 ± 4.9 ng/mL, the Tmax was 27 min, the CL/F was 1360 ± 523 mL/min/kg and the MRT inf was 1990 min. In addition, in series [1], the Vd/F is 2110 ± 1660 L/kg and the half-life was 1660 ± 2120 min. Besides, in series [2] (setting [4]), the “AUC(0-∞)” value is 11559.2 ± 5248.0 µg·min/L and the Ka was 19.0 ± 16.288 min⁻¹. Moreover, in series [2] (setting [5]), the Tmax was at most 27 min. In series [2] (rat, plasma, Control group (normal rats), single oral YCHD 12 g/kg, plasma), the time to peak (Tmax) is 15 min. Moreover, in series [2] (setting [7]), the Cmax stood at 33 ± 4.5 ng/mL, the CL/F was determined as 1480 ± 921 mL/min/kg and the Vd/F came out at 3800 ± 2060 L/kg.
Consider `Cc1cc(O)c2c(c1)C(=O)c1cc(O)cc(O)c1C2=O` [Emodin], for which, in series [3], the “Source (biological samples in which the compound was identified)” value is “Plasma, bile, urine, feces”. Moreover, in series [2], the “direct detection of the prototype” value is reported as “could not be detected directly”.
On to `COC(=O)C1=CO[C@@H](O)[C@@H]2C(CO)=CC[C@H]12` [Genipin], for which, in series [3], the “Source (biological samples in which the compound was identified)” value is “Bile, urine, feces”. The “direct detection of the prototype” value in series [2] is “could not be detected directly”.
Consider `COC(=O)C1=COC(OC2OC(C(=O)O)C(O)C(O)C2O)C2C(CO)=CCC12` (stereo not shown) [M2, Genipin-1-O-gluA], for which the “Source (biological samples in which the compound was identified)” value in series [3] is given as “Plasma, bile, urine, feces”.
In the case of `COC(=O)C1=COC(OS(=O)(=O)O)C2C(CO)=CCC12` (stereo not shown) [M3, Genipin-1-O-SO3], in series [3], the “Source (biological samples in which the compound was identified)” value is “Bile, urine, feces”.
The same measure, in the same setting: next, `CC(=O)c1ccc(OS(=O)(=O)O)cc1` [M6, 4-Hydroxyacetophenone-1-O-SO3]: “Plasma, bile, urine, feces”.
For `Cc1cc(O)c2c(c1)C(=O)c1cc(OS(=O)(=O)O)cc(O)c1C2=O` [M7, Emodin-O-SO3], the “Source (biological samples in which the compound was identified)” value in series [3] is listed as “Plasma, urine, feces”.

One may read the Cmax as the peak of the concentration-time curve. The term Tmax denotes the time from dosing to the highest level.
